This passage reports IC50 results from BindingDB's records for doi:10.1021/jm061268p (University of Arizona, 2007).

The target of this experiment is T1, Cholecystokinin receptor type A (Homo sapiens, UniProt P32238).
T1 sequence (P32238 whole entry): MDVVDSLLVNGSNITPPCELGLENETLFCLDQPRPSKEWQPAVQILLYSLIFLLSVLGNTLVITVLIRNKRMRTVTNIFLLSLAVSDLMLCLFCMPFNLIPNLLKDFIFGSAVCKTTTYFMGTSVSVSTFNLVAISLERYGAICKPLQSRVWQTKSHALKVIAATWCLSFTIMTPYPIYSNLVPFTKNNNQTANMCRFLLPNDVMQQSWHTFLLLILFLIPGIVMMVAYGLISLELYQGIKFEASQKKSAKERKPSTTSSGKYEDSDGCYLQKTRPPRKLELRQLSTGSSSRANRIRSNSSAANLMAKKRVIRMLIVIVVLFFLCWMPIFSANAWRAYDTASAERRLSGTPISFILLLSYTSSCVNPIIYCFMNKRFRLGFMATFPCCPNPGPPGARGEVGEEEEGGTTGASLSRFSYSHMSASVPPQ
Description: Displacement of [125I]CCK8-SO3 from human CCK1 receptor expressed in HEK293 cells. A general note: Displacement assays read how much labelled ligand stays bound in the presence of the test substance.
On to `CCCC[C@@H](NC(=O)[C@H](Cc1c[nH]c2ccccc12)NC(=O)OC(C)(C)C)C(=O)N[C@H](CC(=O)O)C(=O)N[C@H](Cc1ccccc1)C(=O)NNC(=O)[C@H](Cc1ccccc1)NC(=O)CNC(=O)[C@@H](C)NC(=O)[C@@H](N)Cc1ccc(O)cc1` [H-Tyr-D-Ala-Gly-Phe-NH-NH-D-Phe-D-Asp-D-Nle-Trp-Boc], for which the IC50 – broadly, the concentration that inhibits the measured activity by half – is 5.05 nM.
With `CCCC[C@H](NC(=O)[C@H](CC(=O)O)NC(=O)[C@@H](N)Cc1ccccc1)C(=O)N[C@H](Cc1c[nH]c2ccccc12)C(=O)NNC(=O)[C@H](Cc1ccccc1)NC(=O)CNC(=O)[C@@H](C)NC(=O)[C@@H](N)Cc1ccc(O)cc1` [H-Tyr-D-Ala-Gly-Phe-NH-NH-D-Trp-Nle-Asp-Phe-H], the IC50 turned out to be 5.15 nM.
On to `CCCC[C@@H](NC(=O)[C@@H](CC(=O)O)NC(=O)[C@H](N)Cc1ccccc1)C(=O)N[C@@H](Cc1c[nH]c2ccccc12)C(=O)NNC(=O)[C@H](Cc1ccccc1)NC(=O)CNC(=O)[C@@H](C)NC(=O)[C@@H](N)Cc1ccc(O)cc1` [H-Tyr-D-Ala-Gly-Phe-NH-NH-Trp-D-Nle-D-Asp-D-Phe-H], for which the IC50 came to 5.72 nM.
